Measurements: patent US11781160B2, “Methods for the production of methacrylates” (priority 2018, dated 2023)

How the values were obtained:
[1] = tested on: E. coli MG1655; assay: Growth in MSX medium with 20% (v/v) BMA, wild type; assay type: cell-based, Escherichia coli
[2] = tested on: E. coli MG1655 soxR(R20H); assay: Growth in MSX medium with 20% (v/v) BMA, single mutant; assay type: cell-based, Escherichia coli; conditions: 20% (v/v) BMA added immediately after inoculation
[3] = tested on: E. coli BW25113 ΔsoxR; assay: Growth in MSX medium with 20% (v/v) BMA, knock-out strain; assay type: cell-based, Escherichia coli; conditions: 20% (v/v) BMA added immediately after inoculation
[4] = tested on: E. coli BW25113 ΔacrR; assay: as above; assay type: cell-based, Escherichia coli; conditions: 20% (v/v) BMA added immediately after inoculation
[5] = tested on: E. coli MG1655 acrR(T32fs); assay: Growth in MSX medium with 20% (v/v) BMA, single mutation strain; assay type: cell-based, Escherichia coli; conditions: 20% (v/v) BMA added immediately after inoculation
[6] = tested on: gene transcription in strain 21; assay: Transcriptome analysis with added BMA, strain 21
Method: (§1) Transcriptome analysis was carried out to characterize transcriptional activity in mutant microorganisms using standard methods.
(§2) Sample Preparation • 1) Streak strains onto fresh MSX agar (15 g/L) plates directly from the cryostocks and incubate overnight at 37° C. • 2) Isolate single colonies and inoculate pre-cultures in MSX, using 50 ml shake flasks. Incubate overnight at 37° C. and 250 rpm. • 3) Inoculate cultures in MSX to an initial OD600 of 0.05, using 250 mL pyrex shake flasks with 24/29 neck join. Incubate at 37° C. and 250 rpm. Do 4 biological replicates (3 replicates for sequencing plus one backup)—4 flasks per strain. • 4) Seal shake flasks with sterile Suba seals. To monitor OD, take samples using a sterile syringe and needle after first swabbing the Suba seals with 70% ethanol. Monitor OD. • 5) When OD reaches 0.3, collect first sample for RNA extraction (“before” sample) into a pre-chilled falcon. Keep samples on ice. • 6) Immediately after, add 20% (v/v) BMA. Re-incubate cultures. • 7) Quickly process the samples according to the RNeasy kit protocol, until step 6 of protocol 1. Always keep samples on ice and store it at −80° C. until further use, if possible, flash freeze in liquid nitrogen it before storing. • 8) One hour after the first sample collection/BMA addition, collect the second sample for RNA extraction (“after” sample). Proceed as explained before. • 9) Continue to monitor the OD until the cultures reach 24 h. • To summarise, each strain tested will have 6 samples to send for sequencing, 3 collected right before the addition and 3 collected one hour after, plus 1 “back-up” for before and after, in case something goes wrong during extraction (8 samples total). Besides the WT strain with the addition of BMA, samples were also collected from a WT culture with no BMA, one hour after reaching OD of 0.3, as a control.
(§3) Transcription was compared for a double mutant and the wild-type in the presence and absence of BMA relative to the level in the wild type in the absence of BMA. For the avoidance of doubt the level in the table is the ratio of the level in the strain under the BMA exposure relative to the level in the wild type in the absence of added BMA.

[7] = tested on: gene transcription in strain 23; assay: Transcriptome analysis with added BMA, strain 23
Method: as §1, §2, §3

[8] = tested on: gene transcription in wild type; assay: Transcriptome analysis with added BMA, wild type
Method: as §1, §2, §3

[9] = tested on: gene transcription in double mutant; assay: Transcriptome analysis with added BMA, double mutant
Method: as §1, §2, §3

[10] = tested on: E. coli BW 25113; assay: Growth of E. coli BW25113 (wild type) with BMA in M9 minimal medium
[11] = BMA concentration increased further to 20% v/v
[12] = Wild Type, 0.05% BMA (v/v), Table 2.2
[13] = Wild Type, 0.1% BMA (v/v), Table 2.2

## C=C(C)C(=O)OCCCC [BMA, butyl 2-methylprop-2-enoate]
[1]; 20% (v/v) BMA added immediately after inoculation, WT
  Growth in the presence of BMA: unable to grow
[1]; MSX medium containing 20% (v/v) BMA, 30 mL vials, 37° C., 250 rpm
  Time after which growth was observed: 72 h
[2]
  Growth in the presence of BMA: able to grow
[3]
  Growth in the presence of BMA: unable to grow
[4]
  Growth in the presence of BMA: unable to grow
[5]
  Growth in the presence of BMA: able to grow
[6]
  IdhA transcription level relative to wild type without BMA: 20.48
  acrA transcription level relative to wild type without BMA: 5.63
  acrB transcription level relative to wild type without BMA: 8.93
  adiY transcription level relative to wild type without BMA: 10.74
  ariR transcription level relative to wild type without BMA: 6.13
  asr transcription level relative to wild type without BMA: 11.63
  bssR transcription level relative to wild type without BMA: 198.48
  ibpA transcription level relative to wild type without BMA: 29.21
  ibpB transcription level relative to wild type without BMA: 30.97
  narG transcription level relative to wild type without BMA: 65.34
  nirB transcription level relative to wild type without BMA: 39.43
  nirD transcription level relative to wild type without BMA: 42.50
  pspA transcription level relative to wild type without BMA: 21.16
  pspB transcription level relative to wild type without BMA: 14.98
  pspD transcription level relative to wild type without BMA: 14.80
  pspc transcription level relative to wild type without BMA: 14.67
  raiA transcription level relative to wild type without BMA: 22.55
  rmf transcription level relative to wild type without BMA: 36.77
  soxS transcription level relative to wild type without BMA: 1.08
  spy transcription level relative to wild type without BMA: 1.77
  ybfA transcription level relative to wild type without BMA: 33.06
  ybhG transcription level relative to wild type without BMA: 9.26
  ybiH transcription level relative to wild type without BMA: 7.20
  ydgU transcription level relative to wild type without BMA: 6.39
  yhjx transcription level relative to wild type without BMA: 3.11
  yibT transcription level relative to wild type without BMA: 95.47
  ymgA transcription level relative to wild type without BMA: 2.43
  ymgC transcription level relative to wild type without BMA: 1.53
  ynfM transcription level relative to wild type without BMA: 65.39
  yohk transcription level relative to wild type without BMA: 7.09
[7]
  IdhA transcription level relative to wild type without BMA: 28.20
  acrA transcription level relative to wild type without BMA: 6.50
  acrB transcription level relative to wild type without BMA: 7.66
  adiY transcription level relative to wild type without BMA: 6.73
  ariR transcription level relative to wild type without BMA: 14.82
  asr transcription level relative to wild type without BMA: 123.20
  bssR transcription level relative to wild type without BMA: 71.61
  ibpA transcription level relative to wild type without BMA: 31.35
  ibpB transcription level relative to wild type without BMA: 41.67
  narG transcription level relative to wild type without BMA: 42.52
  nirB transcription level relative to wild type without BMA: 25.46
  nirD transcription level relative to wild type without BMA: 25.17
  pspA transcription level relative to wild type without BMA: 32.81
  pspB transcription level relative to wild type without BMA: 27.16
  pspD transcription level relative to wild type without BMA: 28.18
  pspc transcription level relative to wild type without BMA: 28.45
  raiA transcription level relative to wild type without BMA: 31.13
  rmf transcription level relative to wild type without BMA: 8.80
  soxS transcription level relative to wild type without BMA: 30.40
  spy transcription level relative to wild type without BMA: 4.79
  ybfA transcription level relative to wild type without BMA: 29.99
  ybhG transcription level relative to wild type without BMA: 20.82
  ybiH transcription level relative to wild type without BMA: 16.75
  ydgU transcription level relative to wild type without BMA: 50.45
  yhjx transcription level relative to wild type without BMA: 596.44
  yibT transcription level relative to wild type without BMA: 42.63
  ymgA transcription level relative to wild type without BMA: 8.84
  ymgC transcription level relative to wild type without BMA: 7.42
  ynfM transcription level relative to wild type without BMA: 41.92
  yohk transcription level relative to wild type without BMA: 10.04
[8]
  IdhA transcription level relative to wild type without BMA: 0.59
  acrA transcription level relative to wild type without BMA: 0.64
  acrB transcription level relative to wild type without BMA: 0.98
  adiY transcription level relative to wild type without BMA: 0.19
  ariR transcription level relative to wild type without BMA: 0.44
  asr transcription level relative to wild type without BMA: 0.22
  bssR transcription level relative to wild type without BMA: 0.46
  ibpA transcription level relative to wild type without BMA: 0.09
  ibpB transcription level relative to wild type without BMA: 0.42
  narG transcription level relative to wild type without BMA: 0.40
  nirB transcription level relative to wild type without BMA: 0.06
  nirD transcription level relative to wild type without BMA: 0.57
  pspA transcription level relative to wild type without BMA: 0.04
  pspB transcription level relative to wild type without BMA: 0.73
  pspD transcription level relative to wild type without BMA: 0.14
  pspc transcription level relative to wild type without BMA: 0.10
  raiA transcription level relative to wild type without BMA: 0.11
  rmf transcription level relative to wild type without BMA: 0.28
  soxS transcription level relative to wild type without BMA: 0.24
  spy transcription level relative to wild type without BMA: 3.91
  ybfA transcription level relative to wild type without BMA: 0.39
  ybhG transcription level relative to wild type without BMA: 0.19
  ybiH transcription level relative to wild type without BMA: 0.04
  ydgU transcription level relative to wild type without BMA: 7.95
  yhjx transcription level relative to wild type without BMA: 1.72
  yibT transcription level relative to wild type without BMA: 0.09
  ymgA transcription level relative to wild type without BMA: 0.16
  ymgC transcription level relative to wild type without BMA: 6.27
  ynfM transcription level relative to wild type without BMA: 0.07
  yohk transcription level relative to wild type without BMA: 0.13
[9]; LM double mutant
  acrA transcription level relative to wild type without BMA: 5.13
  acrB transcription level relative to wild type without BMA: 4.99
[9]; double mutant
  IdhA transcription level relative to wild type without BMA: 30.42
  adiY transcription level relative to wild type without BMA: 10.80
  ariR transcription level relative to wild type without BMA: 8.91
  asr transcription level relative to wild type without BMA: 711.06
  bssR transcription level relative to wild type without BMA: 5.47
  ibpA transcription level relative to wild type without BMA: 80.35
  ibpB transcription level relative to wild type without BMA: 672.54
  narG transcription level relative to wild type without BMA: 3.23
  nirB transcription level relative to wild type without BMA: 3.28
  nirD transcription level relative to wild type without BMA: 3.57
  pspA transcription level relative to wild type without BMA: 27.60
  pspB transcription level relative to wild type without BMA: 11.73
  pspD transcription level relative to wild type without BMA: 10.00
  pspc transcription level relative to wild type without BMA: 11.09
  raiA transcription level relative to wild type without BMA: 36.36
  rmf transcription level relative to wild type without BMA: 17.63
  soxS transcription level relative to wild type without BMA: 20.93
  spy transcription level relative to wild type without BMA: 99.47
  ybfA transcription level relative to wild type without BMA: 59.92
  ybhG transcription level relative to wild type without BMA: 10.78
  ybiH transcription level relative to wild type without BMA: 7.73
  ydgU transcription level relative to wild type without BMA: 188.87
  yhjx transcription level relative to wild type without BMA: 2.32
  yibT transcription level relative to wild type without BMA: 43.57
  ymgA transcription level relative to wild type without BMA: 9.97
  ymgC transcription level relative to wild type without BMA: 11.68
  ynfM transcription level relative to wild type without BMA: 29.92
  yohk transcription level relative to wild type without BMA: 19.51
[10]; 0.01% v/v BMA
  Growth rate: 0.617 ± 0.009 h⁻¹
  Lag phase: 2 h
  Max cell concentration: 1.365 ± 0.120 g/L
[10]; 0.05% v/v BMA
  Growth rate: 0.517 ± 0.014 h⁻¹
  Lag phase: 4 h
  Max cell concentration: 1.269 ± 0.074 g/L
[10]; 0.1% v/v BMA
  Growth rate: 0.519 ± 0.010 h⁻¹
  Lag phase: 12 h
  Max cell concentration: 1.335 ± 0.074 g/L
[10]; [11]
  Consistency of growth: growth was inconsistent
  Incubation time after which cell growth was observed: 24 to 36 h
[10]; M9 minimal medium, 37° C.
  BMA concentration that inhibits the growth of E. coli: above 0.05 % v/v
[10]; [12]
  Growth rate: 0.517 ± 0.014 h⁻¹
  Lag time: 4 h
  Max cell concentration: 1.269 ± 0.074 g/L
[10]; [13]
  Growth rate: 0.519 ± 0.010 h⁻¹
  Lag time: 12 h
  Max cell concentration: 1.335 ± 0.074 g/L
[10]; […], same conditions
  Time after inoculation at which significant growth was exhibited: 12 h
